For assay [1], the system named is yeast cells. The note with it: cited from earlier work.
The subject of assay [2] is peripheral blood lymphocytes (PBL). The conditions noted are these: background statement; cited from earlier work.
The test system of assay [3] is yeast strains JK9-3dα, MH272-1da and MH272-1da/α. The experiment in a line: Yeast growth on media containing the compound, compared with medium without compound. In kind it is cell-based, Saccharomyces Cerevisie. The note with it: for antifungal activity on Saccharomyces Cerevisie: general statement. How it is done:
The compound, e.g. FTY720, is dissolved in distilled water to be 10 mM, the resulting stock solution is kept at 4° C. and diluted to the appropriated concentrations with medium used for yeast culture. Standard laboratory yeast strain in this case derivatives of JK9-3d (a, alpha and diploid) are plated on to media containing the varying concentrations of the compound to be tested and their growth are compared to that in medium without the compound. Cultivation and maintenance of cells are carried out in YEPD medium (Difco) or synthetic medium (SD). The growth of both yeast strains JK9-3dα, MH272-1da and MH272-1da/α is inhibited by a compound of formula I, e.g. FTY720, at 30 μM in the YPED solid medium at 30° C. or in minimal medium at 19° C.

The subject of assay [4] is prototrophic derivatives of JK9-3dα. In words: Growth sensitivity of prototrophic derivatives of JK9-3dα to FTY720. It counts as cell-based, Saccharomyces Cerevisie. The protocol:
(§1) The compound, e.g. FTY720, is dissolved in distilled water to be 10 mM, the resulting stock solution is kept at 4° C. and diluted to the appropriated concentrations with medium used for yeast culture. Standard laboratory yeast strain in this case derivatives of JK9-3d (a, alpha and diploid) are plated on to media containing the varying concentrations of the compound to be tested and their growth are compared to that in medium without the compound. Cultivation and maintenance of cells are carried out in YEPD medium (Difco) or synthetic medium (SD).
If so, yeast that are able to synthesize amino acids might have a growth advantage in the presence of FTY720 compared with isogenic auxotrophic yeast that require amino acid import from the medium to grow. Therefore, the influence of nutrient auxotrophies present in JK9-3dα (trp1 his4 leu2 ura3), which are used to identify target molecules of FTY720, on the sensitivity to this compound is tested. In contrast to the parental auxotrophic strain, fully prototrophic TRP1 HIS4 LEU2 URA3 derivative of JK9-3dα is resistant to 30 μM of FTY720. […] It therefore seems that the molecular targets and pathways other than that of 30 μM are involved in the effects of 100 μM of FTY720. Then, in order to identify which nutrient transport is inhibited by 30 μM of FTY720, prototrophic strain for each nutrient are constructed in JK9-3dα.

In assay [5] the test system is JK9-3dα transformants. In words: FTY720 resistance of JK9-3dα transformants carrying plasmid-borne genes. It counts as cell-based, Saccharomyces Cerevisie. From the text: If the growth sensitivity of these yeast strains is due to inhibition of specific functional protein targets in the cells, such inhibition could be relieved by overexpressing such a function through introduction of multiple genetic copies of such function. Accordingly the FTY720 sensitive strain JK9-3dα has been transformed with yeast genomic DNA libraries cloned in high copy plasmid (2 μm) URA3 selectable using Yeast Transformation System (Clontech). FTY720-resistant transformants are selected on synthetic medium lacking uracil in the presence of 30 μM of FTY720. The total number of URA3+transformants is >20,000. The first selection Is performed at 19° C. because even the parent yeast strain JK9-3dα is resistant to FTY720 in synthetic medium at 30° C. After the first selection for resistance, FTY720-resistant growth phenotype of transformants is reconfirmed by restreaking individual colonies on to medium with the compound. Plasmid which conferred resistance to FTY720 are recovered according to standard methods, amplified in E. coli and reintroduced into JK9-3da for the confirmation of FTY720 resistance. The DNA fragments which conferred FTY720 resistance are isolated to determine sequence of both terminii of insert DNA and the DNA sequence is compared with Saccharomyces Genome Database. Then, the responsible single genes for the FTY720 resistance are further identified from the DNA fragments due to their common presence in different fragments and by using specific restriction enzymes to subclone them into yeast plasmid vector as shorter fragments (Genes Vap1, UBP5, UBP11 and Caj1 are identified by this method).
From each fragment or resistance plasmid, single responsible genes, which overcome the anti-fungal effects of this compound at the increased copy number, are identified by subcloning using restriction enzymes. One is amino acid transporter VAP1, the others are a putative deubiquitinating enzyme UBP11 and UBP5. The last one is CAJ1 (heat shock protein).
The glutamine transporter GNP1 gene (38) is PCR amplified out of this fragment derived from the FTY720 resistant mutant or parent wild-type genomic DNA, then cloned into the same plasmid vector pRS416.
JK9-3dα wild-type cells are transformed with the yeast genomic DNA library constructed from FTY720 resistant dominant mutant in the low-copy-number vector pRS416. FTY720-resistant transformants are selected in SD medium in the presence of 30 μM of FTY720 as mentioned above. Plasmid inserts are sequenced and gene is identified as GNP1.

In assay [6] the test system is Bul1-disrupted yeast. In words: Sensitivity of gene-disrupted yeast strains to FTY720. It counts as cell-based, Saccharomyces Cerevisie. How it is done:
as §1
Only one genomic DNA fragment in pRS416 confers sensitivity to FTY720. This DNA contains 4 intact genes (NRC1, Bul1, RCE1, DSK2). […] Intact Bul1 gene in low-copy-number plasmid confers sensitvity to FTY720 in the resistant recessive mutants, implying that the mutation happens in Bul1 gene in the recessive mutant yeast.

Assay [7] relates to Rsp5 mutant yeast. The experiment in a line: Sensitivity of Rsp5 mutant to FTY720. It counts as cell-based, Saccharomyces Cerevisie. The note with it: 30 μM. The protocol: as §1
In order to clarify the role of the ubiquitin pathway in FTY720 action, the sensitivity of Rsp5 (Bul1 binding ubiquitin ligase) mutant to FTY720 is tested. Rsp5 mutant, in which Rsp5 expression level is reduced to less than 10% of wild-type due to the Ty1 transposed insertion in the promoter, is used in this study, since the complete disruption of Rsp5 gene is lethal. This Rsp5 mutant is resistant to 30 μM of FTY720 like Bul1 disrupted-yeast.

The test system of assay [8] is several yeast strains. The conditions noted are these: background statement; cited from earlier work.

Turning to `CCCCCCCCCCCCCC[C@@H](O)[C@@H](O)[C@@H](N)CO` [PHS, phytoshingosine], the tryptophan uptake result in assay [1] was “diminishes tryptophan uptake”.

Turning to `NC(CO)(CO)CCc1ccc(C(=O)CCCCc2ccccc2)cc1` [Compound Y, 2-amino-2-{2-[4-(1-oxo-5-phenylpentyl)phenyl]ethyl}propane-1,3-diol], the “peripheral blood lymphocytes (PBL) in vivo” value in assay [2] was “rapid and marked reduction”. For the same compound, in assay [3], the “antifungal activity on Saccharomyces Cerevisie” value was “exhibits an antifungal activity”.

On to `CCCCCCCCc1ccc(CCC(N)(CO)CO)cc1` [FTY720, 2-Amino-2-[2-(4-octylphenyl)ethyl]propane-1,3-diol], for which the “sensitivity of fully prototrophic TRP1 HIS4 LEU2 URA3 derivative of JK9-3dα” value in assay [4] (30 μM) is “resistant”. Moreover, in assay [4] (30 μM, JK9-3dα background), the “sensitivity of single TRP1, HIS4, LEU2 or URA3 prototrophic strains” value is listed as “Neither of each TRP1, HIS4, LEU2 or URA3 prototrophic strain is resistant”; the “sensitivity of strain with both TRP1 and LEU2” value was “sufficient to confer resistance”. Besides, the “sensitivity of prototrophic yeast” value in assay [4] (100 μM) is listed as “still sensitive”. Moreover, the “peripheral blood lymphocytes (PBL) in vivo” value in assay [2] is “rapid and marked reduction”. The “growth of yeast strains JK9-3dα, MH272-1da and MH272-1da/α” value in assay [3] (30 μM, YPED solid medium at 30° C. or minimal medium at 19° C.) is given as “inhibited”. The “antifungal activity on Saccharomyces Cerevisie” value in assay [3] was “exhibits an antifungal activity”. In assay [3] (synthetic medium at 30° C.), the “sensitivity of parent yeast strain JK9-3dα” value is given as “resistant”. The “anti-fungal effect with wild type TAT2 gene in low-copy number-plasmid” value in assay [5] was “overcomes the anti-fungal effects”. The “growth-inhibitory effect with VAP1, UBP11, UBP5 or CAJ1 in high-copy-number plasmid” value in assay [5] (30 μM, JK9-3dα) is reported as “overcome the growth-inhibitory effects”. Further, the “anti-fungal effect with mutant-derived GNP1 in low-copy-number plasmid” value in assay [5] (30 μM, JK9-3dα transformants, pRS416) is recorded as “confers resistance”. For the same compound, the “growth inhibition with multiple copies of VAP1” value in assay [5] (100 μM) is given as “fail to overcome the growth inhibition”. In addition, the “anti-fungal effect with wild-type GNP1 gene in low-copy-number plasmid” value in assay [5] (JK9-3dα transformants, pRS416) was “not inhibited”. The “anti-fungal effect with VAP1 (and TAP2) in low-copy-number plasmid” value in assay [5] (genes from mutant-derived and wild-type genomic DNA libraries) is “confer FTY720 resistance”. Besides, the “sensitivity of Bul1-disrupted yeast after introduction of Bul1 gene in low-copy-number plasmid pRS416” value in assay [6] is reported as “reverses the phenotype from resistance to sensitivity”. Further, in assay [6] (30 μM), the “sensitivity of Bul1-disrupted yeast” value was “confers resistance”. In assay [7], the “sensitivity of Rsp5 mutant (Rsp5 expression less than 10% of wild-type)” value was “resistant”.

Take cyclosporin A [CsA]: the “growth of several yeast strains” value in assay [8] was “potently inhibit”.
